In patent publication US9365588B2, “Benzoxazines as modulators of ion channels” (Vertex Pharmaceuticals Incorporated, priority 2011, dated 2016):

Target: human NaV 1.7 (Homo sapiens, UniProt Q15858)
Assay: E-VIPR optical membrane potential assay with electrical stimulation
Assay type: cell-based
Settings: sodium channel inhibition; read-out: Binned Activity Data (IC50)
In short: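 Membrane-potential read-out: background-subtracted 460 nm/580 nm ratio during a 9 s current-controlled stimulus, 400 Hz scan. Before stimulation, NaV1.7-HEK cells carried coumarin/oxonol dye and compound (final DMSO 0.625%) for 20–35 min at room temperature; tetracaine 125 μM served as positive control.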

human NaV 1.7, sequence (Q15858 whole entry): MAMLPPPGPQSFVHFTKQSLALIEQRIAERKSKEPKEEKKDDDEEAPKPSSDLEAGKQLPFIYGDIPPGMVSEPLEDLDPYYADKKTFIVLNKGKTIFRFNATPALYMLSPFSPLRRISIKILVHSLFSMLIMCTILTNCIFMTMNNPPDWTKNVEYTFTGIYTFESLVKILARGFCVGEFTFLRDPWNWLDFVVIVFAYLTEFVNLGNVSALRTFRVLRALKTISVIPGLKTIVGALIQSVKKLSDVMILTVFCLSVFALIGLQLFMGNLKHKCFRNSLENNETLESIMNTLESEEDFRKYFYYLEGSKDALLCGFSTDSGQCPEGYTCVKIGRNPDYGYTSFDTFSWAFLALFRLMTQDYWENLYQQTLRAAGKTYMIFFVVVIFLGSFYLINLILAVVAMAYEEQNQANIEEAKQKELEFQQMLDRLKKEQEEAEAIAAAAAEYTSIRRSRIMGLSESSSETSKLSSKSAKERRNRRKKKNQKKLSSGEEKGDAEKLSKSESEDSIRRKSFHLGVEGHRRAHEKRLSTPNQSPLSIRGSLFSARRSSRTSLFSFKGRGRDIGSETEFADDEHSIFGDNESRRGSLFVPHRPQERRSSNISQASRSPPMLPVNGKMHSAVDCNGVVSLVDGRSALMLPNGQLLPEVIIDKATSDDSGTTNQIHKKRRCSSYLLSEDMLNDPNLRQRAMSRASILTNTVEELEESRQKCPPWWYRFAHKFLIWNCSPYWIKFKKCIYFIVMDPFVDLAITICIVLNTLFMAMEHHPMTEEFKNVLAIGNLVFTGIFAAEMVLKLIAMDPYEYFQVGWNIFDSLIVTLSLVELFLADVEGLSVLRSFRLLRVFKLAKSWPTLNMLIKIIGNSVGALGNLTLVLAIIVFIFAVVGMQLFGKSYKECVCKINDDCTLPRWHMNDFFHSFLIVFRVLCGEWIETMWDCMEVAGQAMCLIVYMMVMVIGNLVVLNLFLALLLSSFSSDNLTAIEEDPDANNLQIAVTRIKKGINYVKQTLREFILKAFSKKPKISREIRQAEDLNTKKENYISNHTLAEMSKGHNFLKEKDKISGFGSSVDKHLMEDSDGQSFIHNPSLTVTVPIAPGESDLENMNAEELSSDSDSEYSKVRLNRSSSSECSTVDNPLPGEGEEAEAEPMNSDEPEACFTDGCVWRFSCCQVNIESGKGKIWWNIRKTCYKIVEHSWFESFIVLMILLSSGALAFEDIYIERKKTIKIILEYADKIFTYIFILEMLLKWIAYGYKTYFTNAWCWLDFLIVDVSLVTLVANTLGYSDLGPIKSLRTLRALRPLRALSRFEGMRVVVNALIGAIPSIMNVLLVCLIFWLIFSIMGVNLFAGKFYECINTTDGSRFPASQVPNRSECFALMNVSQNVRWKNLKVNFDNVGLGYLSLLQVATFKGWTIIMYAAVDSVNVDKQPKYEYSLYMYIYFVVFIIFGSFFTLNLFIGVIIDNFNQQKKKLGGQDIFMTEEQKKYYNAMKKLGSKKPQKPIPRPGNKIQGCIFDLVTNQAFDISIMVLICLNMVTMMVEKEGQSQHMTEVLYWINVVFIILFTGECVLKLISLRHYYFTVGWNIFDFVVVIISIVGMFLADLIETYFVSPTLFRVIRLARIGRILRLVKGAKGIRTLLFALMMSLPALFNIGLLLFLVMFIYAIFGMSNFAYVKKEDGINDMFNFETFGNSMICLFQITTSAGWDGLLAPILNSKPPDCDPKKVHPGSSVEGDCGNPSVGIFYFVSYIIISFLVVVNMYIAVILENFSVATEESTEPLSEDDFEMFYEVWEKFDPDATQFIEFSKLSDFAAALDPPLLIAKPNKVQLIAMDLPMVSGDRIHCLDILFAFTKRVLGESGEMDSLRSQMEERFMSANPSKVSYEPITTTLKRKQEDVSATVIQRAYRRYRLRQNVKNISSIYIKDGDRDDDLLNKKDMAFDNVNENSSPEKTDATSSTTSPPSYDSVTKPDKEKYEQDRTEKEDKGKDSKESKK

Row | SMILES | IC50 [nM]
1 | COc1cc(C(F)(F)F)ccc1C(=O)N1CCC2(CC1)Oc1cc(Cl)ccc1-n1cccc12 [Compound 484] | ≤ 2000
2 | Cn1cc2c(n1)-c1cc(F)ccc1OC21CCN(C(=O)c2ccc(C(C)(C)O)cc2)CC1 [Compound 486] | ≤ 2000
3 | CCc1ccc(C(=O)N2CCC3(CC2)Oc2cc(Cl)ccc2-n2cccc23)cc1O [Compound 489] | 2000 to 5000
4 | Cc1cc(C(=O)N2CCC3(CC2)Oc2cccc(C)c2-n2c(C#N)ccc23)ccc1OC(C)C [Compound 490] | ≤ 2000
5 | COc1cc(C(=O)N2CCC3(CC2)Oc2cc(Cl)ccc2-n2cccc23)ccc1C(C)(C)OC [Compound 497] | ≤ 2000
6 | CC(C)NS(=O)(=O)c1ccc(C(=O)N2CCC3(CC2)Oc2ccccc2-c2nn(C)cc23)cc1 [Compound 501] | ≤ 2000
7 | Cc1ccc(C(=O)N2CCC3(CC2)Oc2cc(Cl)ccc2-n2cccc23)c(=O)n1C [Compound 502] | ≤ 2000
8 | Cc1nc2ccc(C(=O)N3CCC4(CC3)Oc3ccccc3-n3c(C(F)(F)F)ccc34)cc2s1 [Compound 503] | ≤ 2000
9 | CS(=O)(=O)c1ccc(C(=O)N2CCC3(CC2)Oc2ccccc2-n2c(C#N)ccc23)cc1C(F)(F)F [Compound 504] | ≤ 2000
10 | O=C(c1ccc2nc(Cl)sc2c1)N1CCC2(CC1)Oc1ccccc1-n1c(C(F)(F)F)ccc12 [Compound 505] | 2000 to 5000
11 | CC(C)S(=O)(=O)c1ccc(C(=O)N2CCC3(CC2)Oc2ccccc2-n2c(F)ccc23)cc1 [Compound 508] | ≤ 2000
12 | Cc1cc(C(=O)N2CCC3(CC2)Oc2ccccc2-n2c(C#N)ccc23)ccc1S(C)(=O)=O [Compound 509] | ≤ 2000
13 | CCc1ccc(C(=O)N2CCC3(CC2)Oc2cc(C#N)ccc2-n2cccc23)cc1OC [Compound 511] | ≤ 2000
14 | COc1cc(C(=O)N2CCC3(CC2)Oc2cc(Cl)ccc2-n2cccc23)ccc1C1CC1 [Compound 512] | ≤ 2000
15 | CS(=O)(=O)c1cccc(C(=O)N2CCC3(CC2)Oc2cc(Cl)ccc2-n2cccc23)c1 [Compound 513] | ≤ 2000
16 | CC(=O)NCc1ccc2n1-c1ccccc1OC21CCN(C(=O)c2ccc(OC(C)C)c(C)c2)CC1 [Compound 514] | ≤ 2000
17 | Cc1c(CO)cccc1C(=O)N1CCC2(CC1)Oc1ccccc1-n1c(C#N)ccc12 [Compound 516] | ≤ 2000
18 | CC(C)Oc1ccc(C(=O)N2CCC3(CC2)Oc2ccccc2-n2cccc23)cc1C(N)=O [Compound 517] | ≤ 2000
19 | Cc1ccc2c(c1)OC1(CCN(C(=O)c3ccc(S(C)(=O)=O)c(C)c3)CC1)c1ccc(C#N)n1-2 [Compound 522] | ≤ 2000
20 | CNS(=O)(=O)c1ccc(C(=O)N2CCC3(CC2)Oc2ccccc2-c2nn(C)cc23)cc1C [Compound 523] | ≤ 2000
21 | Cc1cc(C(=O)N2CCC3(CC2)Oc2ccccc2-c2ncn(C)c23)ccc1OC(C)C [Compound 525] | ≤ 2000
22 | COc1cc(C(=O)N2CCC3(CC2)Oc2cc(Cl)ccc2-n2cccc23)ccc1C(C)(C)C [Compound 529] | ≤ 2000
23 | N#Cc1ccc2n1-c1ccccc1OC21CCN(C(=O)c2ccc(S(=O)(=O)C(F)F)cc2)CC1 [Compound 530] | ≤ 2000
24 | CC(C)Oc1ccc(C(=O)N2CCC3(CC2)Oc2ccccc2-n2c(C(F)(F)F)ccc23)cc1CO [Compound 531] | ≤ 2000
25 | COCCOc1cc(F)c(C(=O)N2CCC3(CC2)Oc2ccccc2-n2cccc23)cc1OC [Compound 532] | ≤ 2000
26 | COc1cc(C(=O)N2CCC3(CC2)Oc2cccnc2-n2cccc23)ccc1O[C@@H]1CCOC1 [Compound 533] | ≤ 2000

Row | SMILES | IC50 [nM]
27 | COc1cc(OC)cc(C(=O)N2CCC3(CC2)Oc2cc(Cl)ccc2-n2cccc23)c1 [Compound 534] | ≤ 2000
28 | O=C(c1cccnc1N1CCCC1)N1CCC2(CC1)Oc1ccccc1-n1c(C(F)(F)F)ccc12 [Compound 535] | ≤ 2000
29 | CC(C)(C)c1ccc(C(=O)N2CCC3(CC2)Oc2cc(F)ccc2-n2cccc23)cc1C#N [Compound 536] | ≤ 2000
30 | Cc1cc(C(=O)N2CCC3(CC2)Oc2ccccc2-n2cccc23)ccc1OC(C)(C)C [Compound 538] | ≤ 2000
31 | N#Cc1ccc2n1-c1ccccc1OC21CCN(C(=O)c2ccc(S(=O)(=O)NCCCO)cc2)CC1 [Compound 540] | 2000 to 5000
32 | O=C(c1ccc(S(=O)(=O)NC2CC2)cc1)N1CCC2(CC1)Oc1ccccc1-n1c(C(F)(F)F)ccc12 [Compound 541] | ≤ 2000
33 | COc1ccc(C(=O)N2CCC3(CC2)Oc2ccccc2-n2cccc23)cc1S(N)(=O)=O [Compound 542] | 2000 to 5000
34 | Cc1cc(C(=O)N2CCC3(CC2)Oc2cc(Cl)ccc2-n2cccc23)ccc1OCC1CCCO1 (stereo not drawn) [Compound 547] | ≤ 2000
35 | Cc1cc(C#N)n2c1C1(CCN(C(=O)c3ccc(S(=O)(=O)C(C)C)cc3)CC1)Oc1ccccc1-2 [Compound 549] | ≤ 2000
36 | O=C(c1ccnc(N2CCCCC2)c1)N1CCC2(CC1)Oc1ccccc1-n1cccc12 [Compound 551] | ≤ 2000
37 | COCCn1ccc(C(=O)N2CCC3(CC2)Oc2cc(Cl)ccc2-n2cccc23)cc1=O [Compound 552] | ≤ 2000
38 | COc1cc(C(=O)N2CCC3(CC2)Oc2ccccc2-c2[nH]ncc23)ccc1OC(C)(C)C [Compound 553] | 2000 to 5000
39 | Cc1cc(C(=O)N2CCC3(CC2)Oc2ccccc2-n2c3ccc2S(C)(=O)=O)ccc1OC(C)C [Compound 554] | ≤ 2000
40 | CCc1ccc(C(=O)N2C3CCC2CC2(C3)Oc3ccccc3-n3cccc32)cc1OC (stereo not drawn) [Compound 555] | ≤ 2000
41 | O=C(c1ccc2[nH]ncc2c1)N1CCC2(CC1)Oc1ccccc1-n1c(C(F)(F)F)ccc12 [Compound 556] | 2000 to 5000
42 | CNS(=O)(=O)c1ccc(C(=O)N2CCC3(CC2)Oc2ccccc2-n2c(C(F)(F)F)ccc23)cc1C [Compound 558] | ≤ 2000
43 | CC(C)Oc1ccc(C(=O)N2CCC3(CC2)Oc2ccccc2-n2c(C#N)ccc23)cc1CO [Compound 559] | ≤ 2000
44 | COc1cc(F)c(C(=O)N2CCC3(CC2)Oc2cc(Cl)ccc2-n2cccc23)cc1OC [Compound 561] | ≤ 2000
45 | Cc1cc(C(=O)N2CCC3(CC2)Oc2ccccc2-n2cccc23)ccc1C#N [Compound 562] | ≤ 2000
46 | Cc1ccc(C(=O)N2CCC3(CC2)Oc2ccccc2-n2c(C(F)(F)F)ccc23)nc1 [Compound 566] | > 5000
47 | COc1cc(C(=O)N2CCC3(CC2)Oc2cc(F)ccc2-n2cccc23)ccc1C(C)(C)OC [Compound 567] | ≤ 2000
48 | COc1cc(C(=O)N2CCC3(CC2)Oc2ccccc2-n2cccc23)ccc1OC(C)(C)C#N [Compound 570] | ≤ 2000
49 | C[C@](O)(CO)c1ccc(C(=O)N2CCC3(CC2)Oc2ccccc2-n2c(C#N)ccc23)cc1 [Compound 571] | ≤ 2000
50 | CC(C)(O)c1ccc(C(=O)N2CCC3(CC2)Oc2ccccc2-n2c(C(F)(F)F)ccc23)cc1CO [Compound 572] | 2000 to 5000
51 | COc1cc(C(=O)N2CCC3(CC2)Oc2ccccc2-n2cccc23)ccc1C(C)(C)C [Compound 573] | ≤ 2000

The next lines start with the values.

Row | IC50 [nM] | SMILES
52 | ≤ 2000 | CCOc1cccc(C(=O)N2CCC3(CC2)Oc2ccccc2-n2c(C#N)ccc23)c1F [Compound 485]
53 | ≤ 2000 | COc1cccc2c1c(C(=O)N1CCC3(CC1)Oc1ccccc1-c1c3cnn1C)cn2C [Compound 487]
54 | > 5000 | Cc1cccc(C(=O)N2CCC3(CC2)Oc2ccccc2-c2c3cnn2C)c1 [Compound 491]
55 | ≤ 2000 | CNS(=O)(=O)c1ccc(C(=O)N2CCC3(CC2)Oc2ccccc2-c2c3cnn2C)cc1 [Compound 494]
56 | > 5000 | Cn1ncc2c1-c1ccccc1OC21CCN(C(=O)c2ccc(OCCO)cc2)CC1 [Compound 496]
57 | 2000 to 5000 | CN(C)c1cc(C(=O)N2CCC3(CC2)Oc2ccccc2-c2c3cnn2C)ccn1 [Compound 499]
58 | ≤ 2000 | Cc1cc(C(=O)N2CCC3(CC2)Oc2ccccc2-c2[nH]ncc23)ccc1OC(C)C [Compound 500]
59 | ≤ 2000 | Cn1ncc2c1-c1ccccc1OC21CCN(C(=O)c2ccc(C(C)(C)O)cc2)CC1 [Compound 506]
60 | > 5000 | COc1cc(C(=O)N2CCC3(CC2)Oc2ccccc2-c2c3cnn2C)ccc1OCC(N)=O [Compound 507]
61 | ≤ 2000 | Cn1ncc2c1-c1ccccc1OC21CCN(C(=O)c2ccc(OC(F)F)cc2OC(F)F)CC1 [Compound 515]
62 | ≤ 2000 | Cn1ncc2c1-c1ccc(Cl)cc1OC21CCN(C(=O)c2ccccc2OC(F)(F)F)CC1 [Compound 518]
63 | ≤ 2000 | COc1cccc(F)c1C(=O)N1CCC2(CC1)Oc1ccccc1-n1c(C#N)ccc12 [Compound 519]
64 | ≤ 2000 | CCNS(=O)(=O)c1ccc(C(=O)N2CCC3(CC2)Oc2ccccc2-c2c3cnn2C)cc1 [Compound 521]
65 | ≤ 2000 | Cn1ncc2c1-c1ccccc1OC21CCN(C(=O)c2ccc3nc(N)sc3c2)CC1 [Compound 524]
66 | ≤ 2000 | CCn1ncc2c1-c1ccccc1OC21CCN(C(=O)c2cccc(F)c2OC(F)F)CC1 [Compound 528]
67 | ≤ 2000 | COc1cc(C(=O)N2CCC3(CC2)Oc2ccccc2-c2c3cnn2C)ccc1C(C)(C)O [Compound 537]
68 | ≤ 2000 | Cc1cc(C(=O)N2CCC3(CC2)Oc2ccccc2-c2c3cnn2C)ccc1S(=O)(=O)C(C)C [Compound 543]
69 | ≤ 2000 | COc1c(F)cccc1C(=O)N1CCC2(CC1)Oc1ccccc1-c1c2cnn1C(C)C [Compound 544]
70 | ≤ 2000 | CCc1ccccc1C(=O)N1CCC2(CC1)Oc1ccccc1-c1c2cnn1C [Compound 546]
71 | 2000 to 5000 | Cn1ncc2c1-c1ccccc1OC21CCN(C(=O)c2cnn(-c3ccccc3)c2C(F)(F)F)CC1 [Compound 550]
72 | ≤ 2000 | COc1cc(C(=O)N2CCC3(CC2)Oc2ccccc2-c2c3cnn2C)ccc1S(=O)(=O)C(C)(C)C [Compound 557]
73 | 2000 to 5000 | CCc1ccc(C(=O)N2CCC3(CC2)Oc2ccccc2-n2c(C(F)(F)F)ccc23)nc1 [Compound 564]
74 | ≤ 2000 | COc1ccc(C(=O)N2CCC3(CC2)Oc2ccccc2-c2c3ccn2C)cc1C(F)(F)F [Compound 568]
75 | > 5000 | Cn1ncc2c1-c1ccccc1OC21CCN(C(=O)c2ccc(OC3COC3)c(F)c2)CC1 [Compound 569]
